The source of these data is ChEMBL document CHEMBL5154723 (Bioorg Med Chem, 2022).

Usually IC50 stands for the concentration needed to halve the response being measured. Read a high IC50 as a need for much substance.

This assay can be described thus: Inhibition of Influenza A virus H5N1 neuraminidase.
In turn, `O=C(CSc1nnc(-c2ccc(F)cc2)o1)NCc1ccc(Cl)c(Cl)c1` displayed an IC50 of 450 nM.

On to `COc1cccc(CCNC(=O)CSc2nnc(-c3ccccc3)o2)c1`, for which the IC50 worked out at 260 nM.

With `O=C(CSc1nnc(-c2ccccc2)o1)NCc1ccc(Cl)c(Cl)c1`, the IC50 came out at 130 nM.

On to `Cc1cc([N+](=O)[O-])ccc1NC(=O)CSc1nnc(COc2ccc3ccccc3c2)o1`, for which the IC50 amounted to 6150 nM.

Regarding `Cc1ccc(-c2nnc(SCC(=O)NCc3ccc(Cl)c(Cl)c3)o2)cc1`, the IC50 was 2050 nM. Against the preceding compound, the IC50 is about 3-fold lower.

The compound `O=C(CSc1nnc(-c2ccccc2)o1)NCCc1cccc(F)c1` registered an IC50 of 3580 nM.

`COc1ccc(-c2nnc(SCC(=O)NCc3ccc(Cl)c(Cl)c3)o2)cc1` registered an IC50 of 3950 nM.

`COc1cccc(CCNC(=O)CSc2nnc(-c3ccc(C)cc3)o2)c1`: the IC50 came to 150000 nM. Against the preceding compound, the IC50 is about 38-fold higher.

For `O=C(CSc1nnc(-c2ccc(O)cc2)o1)NCc1ccc(Cl)c(Cl)c1`, 1180 nM corresponded to half-maximal inhibition (IC50).

For `O=C(CSc1nnc(-c2ccc(Cl)cc2)o1)NCc1ccc(Cl)c(Cl)c1`, the IC50 turned out to be 32 nM. Compared with the last compound, the IC50 is about 37-fold lower.

Take `O=C(CSc1nnc(-c2ccc(O)cc2)o1)NCCc1cccc(F)c1`: the IC50 is 27 nM. This IC50 and that of the compound before are within 1.5-fold of each other.

`COc1cccc(CCNC(=O)CSc2nnc(-c3ccc(F)cc3)o2)c1` had a half-maximal inhibitory concentration (IC50) of 56700 nM.

As to `COc1cccc(CCNC(=O)CSc2nnc(-c3ccc(O)cc3)o2)c1`, half-maximal inhibition (IC50) was put at 360 nM.

`CCC(CC)O[C@@H]1C=C(C(=O)O)C[C@H](N)[C@H]1NC(C)=O` [OSELTAMIVIR CARBOXYLATE] registered an IC50 of 82 nM.
